According to US4980349A, “Sulphonamides derived from diarylmethanes, the processes for preparing them and pharmaceutical compositions containing them” (SANOFI, priority 1986, dated 1990):

Tested on: rat hind foot kaolin-induced oedema
Test: Kaolin-induced arthritis test, first experiment (decrease in inflammation, foot volume)
Assay type: in vivo
Conditions: 1 h before kaolin, Table IX, read-out: percentage decrease in the inflammation
In short: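 Kaolin (0.05 ml of sterile 10% suspension) injected into metatarsal flexor sheath of rat hind foot; compounds given orally by stomach tube 1 h before. Foot volume measured by plethysmometer during early oedema (maximal 4–6 h). Value is % decrease in inflammation versus controls, mean of 10 animals per dose.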

O=C(O)CCCCCCCCCCNS(=O)(=O)c1ccc(Cl)cc1C(=O)c1ccccc1 [Compound 1572, 11-(2-benzoyl-4-chlorobenzenesulphonamido)undecanoic acid]
change in vivo at 25 mg/kg (25 mg/kg oral): -17% | change in vivo at 50 mg/kg (50 mg/kg oral): -26% | change in vivo at 100 mg/kg (100 mg/kg oral): -50%
